Data: publication PMC3630091, “A Mechanistic Paradigm for Broad-Spectrum Antivirals that Target Virus-Cell Fusion” (PLoS Pathogens, 2013)
Like-named read-outs stand apart in the source and are kept apart here.

Columns and labels:
NDV = assay: microbe, parasite or virus in culture; format: cell-based, Newcastle disease virus; settings: read-out: IC50 ± SD (nM) (N=x) NDV
HIV = assay: microbe, parasite or virus in culture; format: cell-based; settings: Human immunodeficiency virus 1, 10 min, read-out: IC50 ± SD (nM) (N=x) HIV
HSV = assay: microbe, parasite or virus in culture; format: cell-based, Herpes simplex virus-1; settings: Human alphaherpesvirus 1, 10 min, read-out: IC50 ± SD (nM) (N=x) HSV
[1] = Absorbance spectra / UV-visible spectra integration; format: physicochemical; settings: for Abs Max (λmax): 100 µM in DMSO; for AUC (400-750 nm): integrated absorption divided by concentration, normalized relative to LJ001 (LJ001 = 100)
[2] = Singlet oxygen quantum yield measurements; format: physicochemical; settings: error is one standard deviation; for 1O2 QY 355 nm: in CD2Cl2, excitation 355 nm; for 1O2 QY 532 nm: in CD2Cl2, excitation 532 nm
[3] = Singlet oxygen quenching measurements; format: physicochemical; settings: 355 nm with C60 as external sensitizer; error is one standard deviation
[4] = Clinical observations after single dose in PK study; format: in vivo, female Balb/c mice; settings: single dose 2.5 mg/kg ip, about 15 min post administration
Method: Dose administration. […] These mice were replaced and the dose level was reduced to 5 mg/kg. […] Hypoactivity was the only clinical observation noted in some of the mice treated with the 3 test articles at 10 and 100 mg/kg po. […] These animals were replaced and administered with the lower ip dose level of 1.25 mg/kg and underwent blood collections. Mice received single ip doses of 1.25 mg/kg (JL109 and JL118) or 5 mg/kg (JL122) and po doses of 10 mg/kg (JL109, JL118, JL122), 50 mg/kg (JL109, JL118), or 100 mg/kg (JL109, JL118, JL122).

in vitro = settings: human
Pharmacokinetics in mice = settings: for MRT last / Tmax / AUC(0-t) / Cmax: female, Balb/c, mouse, in vivo; for AUC(0-t) / Cmax: po
HIV-1JR-CSF = format: cell-based
RVFV ZH501 = format: in vivo, Balb/c mice; settings: 20 pfu RVFV ZH501 IP; IP once a day for 7 days from 1 h post-challenge; JL118 1.25 mg/kg, JL122 and JL103 10 mg/kg
enveloped viruses = format: cell-based
[5] = Membrane partition into POPC LUV (fluorescence)
[6] = Membrane partition into HIV membrane-like mixture LUV (fluorescence)

SMILES	IC50 (HIV) [nM]	IC50 (NDV; avian paramyxovirus 1, 10 min) [nM]	IC50 (HSV) [nM]	Abs Max (λmax) [1] [nm]	AUC (400-750 nm) [1]	1O2 QY 355 nm [2]	1O2 QY 532 nm [2]	kT × 10-7 [3]	clinical observations [4]	CC50 (in vitro) [nM]	MRT last (Pharmacokinetics in mice) [h]	Tmax (Pharmacokinetics in mice) [h]	AUC(0-t) (Pharmacokinetics in mice; 10 mg/kg) [ng·h/mL]	AUC(0-t) (Pharmacokinetics in mice; 50 mg/kg) [ng·h/mL]	AUC(0-t) (Pharmacokinetics in mice; 100 mg/kg) [ng·h/mL]	further results
Cc1cn([C@H]2C[C@H](N=[N+]=[N-])[C@@H](CO)O2)c(=O)[nH]c1=O [AZT]																t1/2 (inhibition half-life, time-of-addition) (HIV-1JRCSF): > 8.33 h
CCN1C(=O)/C(=C/c2ccc(-c3ccccc3)o2)OC1=S [JL101]																IC50 (NDV): 8800 nM
CCN1C(=S)O/C(=C\c2ccc(-c3ccc(OC)cc3OC)o2)C1=S [JL109, (Z)-5-((5-(2,4-dimethoxyphenyl)furan-2-yl)methylene)-3-ethyloxazolidine-2,4-dithione]	4.5 ± 4.8	3.8 ± 3.9	0.7	550	178	0.37 ± 0.02	0.38 ± 0.02	2.000 ± 0.100 M-1s-1	deaths occurred in the initial 3 animals	8510	4.5 to 10	0.25 to 1	354	595	538	Cmax (Pharmacokinetics in mice; 10 mg/kg, po 10 mg/kg): 88.2 ng/mL; Cmax (Pharmacokinetics in mice; 50 mg/kg, po 50 mg/kg): 127 ng/mL; Cmax (Pharmacokinetics in mice; 100 mg/kg, po 100 mg/kg): 78.2 ng/mL
CCN1C(=S)O/C(=C\c2ccc(-c3ccc(N(C)C)cc3)o2)C1=S [JL118, (Z)-5-((5-(4-(dimethylamino)phenyl)furan-2-yl)methylene)-3-ethyloxazolidine-2,4-dithione]	11.7 ± 5.5	2.1 ± 1.4	10.1 ± 8.6	610	200	0.14 ± 0.01	0.15 ± 0.02	4.600 ± 0.300 M-1s-1	deaths occurred in the initial 3 animals	37000	5.3 to 11.4	0.25 to 1	1350	841	1160	total integrated absorption (AUC), times that of LJ001 ([1]; λ = 400 to 750 nm): 2 times; antiviral potency at physiological hematocrits (HIV-1JR-CSF): maintained their antiviral potency; time-to-death / survival compared to untreated controls (RVFV ZH501): moderate but significant delay in time-to-death; improved in vitro potency compared to LJ001 (enveloped viruses): 10-100 fold; improvements in relevant pharmacokinetic (PK) parameters compared to LJ001 (Pharmacokinetics in mice; half-life, AUC, bioavailability, clearance): > 10 fold; Kp at 10 min, 50 µM [5]: 2700; IL / Iw ([5]; POPC LUV, fluorescence intensity ratio from curve fitting): 233; Kp at 10 min, 50 µM [6]: 2010; IL / Iw ([6]; HIV-like mixture LUV, fluorescence intensity ratio from curve fitting): 488
